Our source for the DC50 values is US20230295197A1, “STAT5 and STAT6 Degraders and Uses Thereof” (REGENTS OF THE UNIVERSITY OF MICHICAN, priority 2022, published 2023).

In one test the test system is STAT5. In words: Immunoblotting (Western blot) analysis of STAT5 degradation efficiency of degraders in treated cells. It counts as cell-based. In a few lines: (§1)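 Each data point uses roughly one million cells dosed as indicated; pellets are lysed on ice, freeze-thawed, and clarified. Reduced, denatured samples (95 °C, 5 min) run on SDS gels, then membranes receive rabbit mAbs to STAT5 or STAT6 plus mouse anti-GAPDH overnight, followed by dye-labelled secondaries for fluorescence imaging.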

In another test the target is T1, STAT6 (Homo sapiens, UniProt P42226).
T1 construct: endogenous in cells; host or cells: MOLM-16, KU-812, SKNO1, MB231, L1236
T1 sequence (P42226 1-847): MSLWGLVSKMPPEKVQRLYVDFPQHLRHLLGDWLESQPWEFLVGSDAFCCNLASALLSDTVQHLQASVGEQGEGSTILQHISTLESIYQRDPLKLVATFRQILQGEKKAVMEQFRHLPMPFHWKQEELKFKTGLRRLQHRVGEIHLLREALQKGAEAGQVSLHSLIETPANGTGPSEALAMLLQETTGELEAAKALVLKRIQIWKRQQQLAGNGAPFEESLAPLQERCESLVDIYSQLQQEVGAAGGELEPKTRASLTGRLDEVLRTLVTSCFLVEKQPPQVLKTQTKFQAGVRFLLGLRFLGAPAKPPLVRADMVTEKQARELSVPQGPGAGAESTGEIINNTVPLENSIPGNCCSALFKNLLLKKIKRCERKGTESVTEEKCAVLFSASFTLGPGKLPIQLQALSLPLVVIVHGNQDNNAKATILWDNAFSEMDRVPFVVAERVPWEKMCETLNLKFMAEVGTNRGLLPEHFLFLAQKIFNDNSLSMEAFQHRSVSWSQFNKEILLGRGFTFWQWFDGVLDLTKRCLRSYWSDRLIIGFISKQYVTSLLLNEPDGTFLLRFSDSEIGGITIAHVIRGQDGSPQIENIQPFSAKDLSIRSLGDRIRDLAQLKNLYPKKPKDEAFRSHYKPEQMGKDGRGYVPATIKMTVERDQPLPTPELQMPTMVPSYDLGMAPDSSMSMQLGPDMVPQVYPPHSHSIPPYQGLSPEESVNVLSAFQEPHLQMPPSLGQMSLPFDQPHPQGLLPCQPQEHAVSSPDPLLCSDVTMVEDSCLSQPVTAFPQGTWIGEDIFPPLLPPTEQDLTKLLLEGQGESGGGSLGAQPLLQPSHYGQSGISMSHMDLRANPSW
The test is described as follows: Immunoblotting (Western blot) analysis of STAT6 degradation efficiency of degraders in treated cells. It is filed as cell-based. In a few lines: as §1
On the technique in general: Immunoblotting shows a protein as a band on a membrane.

[1] abbreviates: MOLM-16 cells, numeric bound, read-out: DC50 S5 MOLM-16.
Where [2] appears, read: MOLM-16 cells, numeric bound, read-out: DC50 S6 MOLM-16.
Setting [3] is: KU-812 cells, read-out: DC50 S5 KU-812.
[4] abbreviates: SKNO1 cells, read-out: DC50 S5 SKNO1.
[5] abbreviates: MB231 cells, read-out: DC50 S6 MB231.
Where [6] appears, read: MOLM-16 cells, class symbols, read-out: DC50 S5 MOLM-16.

Read-outs that look alike come from different tables or passages of the source.

Consider `Cc1ncsc1-c1ccc([C@H](CC(=O)NCCCCCCCCC(=O)N[C@@H]2C[C@@H](C(=O)Nc3ncc(-c4ccccc4)s3)N(C(=O)[C@@H](NC(=O)c3cc4cc(C(F)(F)P(=O)(O)O)ccc4s3)C(C)(C)C)C2)NC(=O)[C@@H]2C[C@@H](O)CN2C(=O)[C@@H](NC(=O)C2(F)CC2)C(C)(C)C)cc1` [Compound 578, (difluoro(2-(((S)-1-((2S,4R)-4-(9-((S)-3-((2S,4R)-1-((S)-2-(1-fluorocyclopropane-1-carboxamido)-3,3-dimethylbutanoyl)-4-hydroxypyrrolidine-2-carboxamido)-3-(4-(4-methylthiazol-5-yl)phenyl)propanamido)nonanamido)-2-((5-phenylthiazol-2-yl)carbamoyl)pyrrolidin-1-yl)-3,3-dimethyl-1-oxobutan-2-yl)carbamoyl)benzo[b]thiophen-5-yl)methyl)phosphonic acid], for which the half-maximal degradation concentration (DC50) in the test on STAT5 (setting [1]) and at STAT6 (setting [2]) was > 300 nM in each case.
For the molecule `CC(C)(C)[C@H](NC(=O)c1cc2cc(C(F)(F)P(=O)(O)O)ccc2s1)C(=O)N1CCC[C@H]1C(=O)N(CCC(=O)N1CC(CCC#Cc2cccc3c2CN(C2CCC(=O)NC2=O)C3=O)C1)c1ccc(Br)cc1` (stereo partly drawn) [Compound 666, ((2-(((2S)-1-((2S)-2-((4-bromophenyl)(3-(3-(4-(2-(2,6-dioxopiperidin-3-yl)-1-oxoisoindolin-4-yl)but-3-yn-1-yl)azetidin-1-yl)-3-oxopropyl)carbamoyl)pyrrolidin-1-yl)-3,3-dimethyl-1-oxobutan-2-yl)carbamoyl)benzo[b]thiophen-5-yl)difluoromethyl)phosphonic acid], the DC50 is 1000 to 10000 nM in the test with STAT5 (setting [3]), > 300 nM in the test with STAT5 (setting [1]), 1000 to 10000 nM in the test on STAT5 (setting [4]) and > 300 nM on STAT6 (setting [2]).
Consider `CN(C(=O)[C@@H]1C[C@@H](OCC(=O)NCCCCCCCCC#Cc2cccc3c2CN(C2CCC(=O)NC2=O)C3=O)CN1C(=O)[C@@H](NC(=O)c1cc2cc(C(F)(F)P(=O)(O)O)ccc2s1)C(C)(C)C)c1ccc(Br)cc1` (stereo partly drawn) [Compound 414, ((2-(((2S)-1-((2S,4R)-2-((4-bromophenyl)(methyl)carbamoyl)-4-(2-((10-(2-(2,6-dioxopiperidin-3-yl)-1-oxoisoindolin-4-yl)dec-9-yn-1-yl)amino)-2-oxoethoxy)pyrrolidin-1-yl)-3,3-dimethyl-1-oxobutan-2-yl)carbamoyl)benzo[b]thiophen-5-yl)difluoromethyl)phosphonic acid], for which the DC50 is > 10000 nM in the test on STAT5 (setting [4]); > 10000 nM on STAT6 (L1236 cells, read-out: DC50 S6 L1236); > 10000 nM on STAT6 (setting [5]).
As to `CN(CCCC#Cc1cccc2c1CN(C1CCC(=O)NC1=O)C2=O)C(=O)CCN(C(=O)[C@@H]1CCCN1C(=O)[C@@H](NC(=O)c1cc2cc(C(F)(F)P(=O)(O)OCOC(=O)C(C)(C)C)ccc2s1)C(C)(C)C)c1ccc2ccccc2c1` (stereo partly drawn) [Compound 673, ((((2-(((2S)-1-((2S)-2-((3-((5-(2-(2,6-dioxopiperidin-3-yl)-1-oxoisoindolin-4-yl)pent-4-yn-1-yl)(methyl)amino)-3-oxopropyl)(naphthalen-2-yl)carbamoyl)pyrrolidin-1-yl)-3,3-dimethyl-1-oxobutan-2-yl)carbamoyl)benzo[b]thiophen-5-yl)difluoromethyl)(hydroxy)phosphoryl)oxy)methyl pivalate], the figures for the DC50 in the test with STAT5 (setting [6]) and on STAT6 (setting [2]) were < 100 nM and > 300 nM, respectively.
For `CC(C)(C)[C@H](NC(=O)c1cc2cc(C(F)(F)P(=O)(O)O)ccc2s1)C(=O)N1CCC[C@H]1C(=O)N(CCC(=O)NCCCC#Cc1cccc2c1CN(C1CCC(=O)NC1=O)C2=O)c1ccc(Br)cc1` (stereo partly drawn) [Compound 406, ((2-(((2S)-1-((2S)-2-((4-bromophenyl)(3-((5-(2-(2,6-dioxopiperidin-3-yl)-1-oxoisoindolin-4-yl)pent-4-yn-1-yl)amino)-3-oxopropyl)carbamoyl)pyrrolidin-1-yl)-3,3-dimethyl-1-oxobutan-2-yl)carbamoyl)benzo[b]thiophen-5-yl)difluoromethyl)phosphonic acid], the DC50 in the test with STAT5 (setting [3]) was 100 to 1000 nM; in the test on STAT5 (setting [6]), < 100 nM; in the test on STAT5 (setting [4]), 100 to 1000 nM; on STAT6 (KU-812 cells, read-out: DC50 S6 KU-812), > 10000 nM; at STAT6 (setting [5]) it was > 10000 nM; on STAT6 (MOLM-16 cells, class symbols, read-out: DC50 S6 MOLM-16), > 10000 nM. Further, on STAT6 (SKNO1 cells, read-out: DC50 S6 SKNO1), the DC50 was > 10000 nM.
`CC(C)(C)[C@H](NC(=O)c1cc2cc(C(F)(F)P(=O)(O)O)ccc2s1)C(=O)N1C[C@H](NC(=O)CCCCCC#Cc2cccc3c2CN(C2CCC(=O)NC2=O)C3=O)C[C@H]1C(=O)Nc1ncc(-c2ccccc2)s1` (stereo partly drawn) [Compound 567, ((2-(((2S)-1-((2S,4R)-4-(8-(2-(2,6-dioxopiperidin-3-yl)-1-oxoisoindolin-4-yl)oct-7-ynamido)-2-((5-phenylthiazol-2-yl)carbamoyl)pyrrolidin-1-yl)-3,3-dimethyl-1-oxobutan-2-yl)carbamoyl)benzo[b]thiophen-5-yl)difluoromethyl)phosphonic acid]: the DC50 in the test on STAT5 (setting [1]) and at STAT6 (setting [2]) was > 300 nM in each case.
`CN(CCCC#Cc1cccc2c1CN(C1CCC(=O)NC1=O)C2=O)C(=O)CCN(C(=O)[C@@H]1CCCN1C(=O)[C@@H](NC(=O)c1cc2cc(C(F)(F)P(=O)(O)OCOC(=O)C(C)(C)C)ccc2s1)C(C)(C)C)c1ccc2cc(F)ccc2c1` (stereo partly drawn) [Compound 675, ((((2-(((2S)-1-((2S)-2-((3-((5-(2-(2,6-dioxopiperidin-3-yl)-1-oxoisoindolin-4-yl)pent-4-yn-1-yl)(methyl)amino)-3-oxopropyl)(6-fluoronaphthalen-2-yl)carbamoyl)pyrrolidin-1-yl)-3,3-dimethyl-1-oxobutan-2-yl)carbamoyl)benzo[b]thiophen-5-yl)difluoromethyl)(hydroxy)phosphoryl)oxy)methyl pivalate]: the DC50 is 100 to 1000 nM in the test on STAT5 (setting [6]) and > 300 nM at STAT6 (setting [2]).
`CC(C)(C)[C@H](NC(=O)c1cc2cc(C(F)(F)P(=O)(O)O)ccc2s1)C(=O)N1CCC[C@H]1C(=O)N(CCC(=O)NCCCC#Cc1cccc2c1CN(C1CCC(=O)NC1=O)C2=O)c1ccc2c(c1)CCCO2` (stereo partly drawn) [Compound 669, ((2-(((2S)-1-((2S)-2-(chroman-6-yl(3-((5-(2-(2,6-dioxopiperidin-3-yl)-1-oxoisoindolin-4-yl)pent-4-yn-1-yl)amino)-3-oxopropyl)carbamoyl)pyrrolidin-1-yl)-3,3-dimethyl-1-oxobutan-2-yl)carbamoyl)benzo[b]thiophen-5-yl)difluoromethyl)phosphonic acid]: the values for the half-maximal degradation concentration (DC50) in the test with STAT5 (setting [1]), in the test on STAT5 (setting [4]) and at STAT6 (setting [2]) were > 300 nM, > 10000 nM and > 300 nM, respectively.
Consider `CC(C)(C)[C@H](NC(=O)c1cc2cc(C(F)(F)P(=O)(O)O)ccc2s1)C(=O)N1CCC[C@H]1C(=O)N(CCC(=O)NCCCC#Cc1cccc2c1CN(C1CCC(=O)NC1=O)C2=O)c1ccc2ncsc2c1` (stereo partly drawn) [Compound 662, ((2-(((2S)-1-((2S)-2-(benzo[d]thiazol-6-yl(3-((5-(2-(2,6-dioxopiperidin-3-yl)-1-oxoisoindolin-4-yl)pent-4-yn-1-yl)amino)-3-oxopropyl)carbamoyl)pyrrolidin-1-yl)-3,3-dimethyl-1-oxobutan-2-yl)carbamoyl)benzo[b]thiophen-5-yl)difluoromethyl)phosphonic acid], for which the DC50 in the test with STAT5 (setting [3]) is > 10000 nM; in the test on STAT5 (setting [1]), > 300 nM; in the test with STAT5 (setting [4]) it was > 10000 nM; at STAT6 (setting [2]), > 300 nM.
As for `CC(C)(C)C(=O)OCOP(=O)(O)C(F)(F)c1ccc2sc(C(=O)N[C@H](C(=O)N3CCC[C@H]3C(=O)N(CCOCCOCC#Cc3cccc4c3CN(C3CCC(=O)NC3=O)C4=O)c3ccc4ccccc4c3)C(C)(C)C)cc2c1` (stereo partly drawn) [Compound 678, ((((2-(((2S)-1-((2S)-2-((2-(2-((3-(2-(2,6-dioxopiperidin-3-yl)-1-oxoisoindolin-4-yl)prop-2-yn-1-yl)oxy)ethoxy)ethyl)(naphthalen-2-yl)carbamoyl)pyrrolidin-1-yl)-3,3-dimethyl-1-oxobutan-2-yl)carbamoyl)benzo[b]thiophen-5-yl)difluoromethyl)(hydroxy)phosphoryl)oxy)methyl pivalate], the DC50 in the test with STAT5 (setting [1]) and at STAT6 (setting [2]) was > 300 nM in each case.

What is called DC50 is the concentration giving 50% degradation.
